Source: ChEMBL document CHEMBL1125522, “2,3-Epoxy-10-aza-10,11-dihydrosqualene, a high-energy intermediate analogue inhibitor of 2,3-oxidosqualene cyclase” (J Med Chem, 1992)

Tests used:
[1] = molecular target: T1, Lanosterol synthase (Rattus norvegicus, UniProt P48450); test: Compound was evaluated for the inhibition of microsomal 2,3-oxidosqualene cyclase in rat liver microsomes; design: species or system Microsome; conditions: read-out: I50
T1 sequence (P48450 whole entry): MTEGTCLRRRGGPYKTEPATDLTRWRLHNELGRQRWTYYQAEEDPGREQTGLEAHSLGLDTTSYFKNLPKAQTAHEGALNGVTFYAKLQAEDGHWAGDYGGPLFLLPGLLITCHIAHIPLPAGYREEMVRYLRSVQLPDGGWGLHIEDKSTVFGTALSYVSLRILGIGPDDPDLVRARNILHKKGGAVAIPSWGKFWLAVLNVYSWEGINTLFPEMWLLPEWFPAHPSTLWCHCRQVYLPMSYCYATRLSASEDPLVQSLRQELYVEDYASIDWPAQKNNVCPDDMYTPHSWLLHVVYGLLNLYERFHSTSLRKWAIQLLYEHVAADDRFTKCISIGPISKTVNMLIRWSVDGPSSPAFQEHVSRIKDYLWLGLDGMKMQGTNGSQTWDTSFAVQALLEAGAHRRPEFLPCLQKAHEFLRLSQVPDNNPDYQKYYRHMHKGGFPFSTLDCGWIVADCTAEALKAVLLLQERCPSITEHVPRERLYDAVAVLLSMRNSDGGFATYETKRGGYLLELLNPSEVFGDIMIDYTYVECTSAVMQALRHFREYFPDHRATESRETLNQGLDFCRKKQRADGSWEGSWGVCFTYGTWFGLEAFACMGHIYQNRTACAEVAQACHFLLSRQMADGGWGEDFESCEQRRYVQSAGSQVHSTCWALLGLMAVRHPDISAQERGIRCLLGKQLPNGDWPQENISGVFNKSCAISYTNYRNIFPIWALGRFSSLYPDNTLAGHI

[2] = molecular target: T1, Lanosterol synthase; test: Compound was evaluated for the inhibition of microsomal 2,3-oxidosqualene-lanosterol cyclase in rat liver microsomes; design: species or system Microsome; conditions: read-out: I50

| IC50 [1] [µM] | IC50 [2] [µM] | Compound |
| --- | --- | --- |
| > 20 |  | CC(C)=CCC/C(C)=C/CCC(C)=CCCCN(C)CC/C=C(/C)CCC1OC1(C)C (configuration not stated) |
|  | 4.8 | CC(C)=CCC/C(C)=C/CC/C(C)=C/CCCN(C)CC/C=C(\C)CCC1OC1(C)C (configuration not stated) |
